Consider one compound from patent publication EP3431468B1, “USE OF ADIPONECTIN RECEPTOR AGONISTS IN TREATING DEPRESSION, ANXIETY AND NEUROINFLAMMATION” (CENTRE NATIONAL DE LA RECHERCHE SCIENTIFIQUE, priority 2017, dated 2019).

Structures are written as SMILES.

The target of series [1] is T1, AdipoRl (Homo sapiens, UniProt Q96A54).
T1 sequence (Q96A54 1-375): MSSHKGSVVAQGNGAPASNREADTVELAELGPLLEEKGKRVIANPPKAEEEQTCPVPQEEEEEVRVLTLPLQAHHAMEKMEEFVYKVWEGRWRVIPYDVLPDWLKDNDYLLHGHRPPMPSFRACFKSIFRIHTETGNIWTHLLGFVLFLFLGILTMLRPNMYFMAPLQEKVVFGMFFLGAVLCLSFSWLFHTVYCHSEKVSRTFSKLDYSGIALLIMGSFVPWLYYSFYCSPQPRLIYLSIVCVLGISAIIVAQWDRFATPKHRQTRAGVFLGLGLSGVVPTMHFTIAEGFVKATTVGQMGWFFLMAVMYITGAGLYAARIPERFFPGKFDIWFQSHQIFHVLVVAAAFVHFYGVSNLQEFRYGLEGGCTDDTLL
As to conditions: Okada-Iwabu, Yamauchi et al. 2013; cited from earlier work.

The nature of series [2]: Kinetic of AdipoRon in plasma and brain areas by HPLC coupled to MS/MS. As to conditions: for time of highest level of AdipoRon post ip injection: 1mg/kg ip; for level of AdipoRon: 3-hours post ip injection, 1mg/kg. The series is classed as in vivo.
For series [3], the system named is pro-inflammatory cytokines (IL1β, IL6, TNFα, IFNγ). The series can be described thus: Pro-inflammatory cytokines measurement in brain areas (ECL-based assay). The series is classed as in vivo. Particulars: corticosterone-treated mice, chronic AdipoRon. As to the method: Data were digitized at 5-10 kHz using a Digidata interface coupled to a microcomputer running pClamp 9 (Axon Instruments, USA). Current-clamp data were digitized at 0.5 kHz using the same interface. Potentials were digitally filtered at 1-3 kHz. Average data were expressed as mean ± SEM, n = number of neurons, N = number of mice. • Western blot analysis - Total proteins were extracted from mouse hypothalamus by homogenization in lysis buffer (50mM Tris-HCl, pH7.5, 150mM NaCl, 5mM EDTA containing 0.5% Triton X-100 and 0.5% sodium deoxycholate with a coktail of protease and phosphatase inhibitors). Equal amounts of total proteins (50µg) determined by the Bradford method (BioRad) were separated onto 12% SDS-PAGE, then transferred on nitrocellulose membrane (Schleicher & Schuell, Dassel, Germany). Blots were incubated in PBS 0.1% Tween, 2% BSA with antibodies directed against phospho-AMPKα (Thr172), total AMPK (Cell Signaling), and then with the appropriate HRP-secondary antibody. […] IFNγ, IL1β, IL6, and TNFα, levels were measured using an electro-chemo-luminescence (ECL)-based assay (U-plex, MesoScaleDiscovery) following manufacturer instructions. Results were standardized according to the protein concentration of each sample determined by the Bradford method. • Kynurenine pathway metabolites measurement - Plasma levels of L-kynurenin (L-Kyn), tryptophan (Trp), kynurenin acid (Kyn ac), 5-HT and 5-HIAA were determined as follows: 25µl of plasma was deproteinated with 150µl of cold MeOH. […] Determination of L-Kyn, Trp, Kyn ac, 5-HT and 5-HIAA levels, done in triplicate, were determined by liquid chromatography coupled to MS-MS analysis as previously described with minor modifications (Fuertig, Ceci et al. 2016). • Statistical Analysis - Statistical analyses were performed using GraphPad Prism 4.0 software. Biological parameters and q-PCR data were analyzed using a one-way (treatment) or two-way (pretreatment X treatment) analysis of variance, followed by a post-hoc multiple comparison procedure using the Dunnett's method. […]

In the case of `O=C(COc1ccc(C(=O)c2ccccc2)cc1)NC1CCN(Cc2ccccc2)CC1` [AdipoRon, 2-(4-Benzoylphenoxy)-N-[1-(phenylmethyl)-4-piperidinyl]-acetamide], in series [1], the “binding to adiponectin receptor” value is recorded as “bind”. Moreover, the “time of highest level of AdipoRon post ip injection” value in series [2] (hippocampus), in series [2] (hypothalamus) and in series [2] (plasma) was “thirty” each time. Moreover, the “level of AdipoRon” value in series [2] (hippocampus), in series [2] (hypothalamus) and in series [2] (plasma) was “barely detectable” in each case. For the same compound, the “blood-brain barrier (BBB) crossing” value in series [2] (ip injection, mice) was “crosses the BBB”. The “corticosterone-induced cytokines differences (IFNγ)” value in series [3] (hippocampus) is listed as “abolished”. In addition, the “corticosterone-induced cytokines differences (IL1β, TNFα, IFNγ)” value in series [3] (hypothalamus) is “abolished”. Moreover, the “corticosterone-induced cytokines differences (IL1β, IL6, TNFα)” value in series [3] (prefrontal cortex) was “abolished”.
